“And” between values parts separate entries of the source, which are not always exact repeats. Equal entries are not always repeated. Inconclusive results and toxic doses are left out. How the source made its calls: active means survival T/C of 150% or more; inactive means T/C below 125% in these data. Square brackets hold non-standard residues; d marks the D form. Peptide text beside a SMILES is read from it. * marks the point of attachment. Cbz = O=C(OCc1ccccc1)*; Nva = CCC[CH](N)C(=O)O
Tested on: P388 leukemia ip, CD2F1 mice, survival T/C
Experiment: NCI In Vivo Anticancer Drug Screen. Data for tumor model P388 Leukemia (intraperitoneal) in CD2F1 (CDF1) mice
Details: endpoint: median survival time, higher = longer survival
Procedure, shortened: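 Mice carrying the transplanted tumor received test compound or vehicle. Survival was recorded in each group, and the value is the treated-group measurement divided by that of the vehicle-treated control group.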

[1] = dose: 25.0 mg/kg/injection, schedule: Q01DX009 (ip), vehicle: Klucel (hydroxypropylcellulose) (HPC)
[2] = dose: 50.0 mg/kg/injection, schedule: Q01DX009 (ip), vehicle: Klucel (hydroxypropylcellulose) (HPC)
[3] = dose: 200.0 mg/kg/injection, schedule: Q01DX009 (ip), vehicle: Klucel (hydroxypropylcellulose) (HPC)
[4] = dose: 60.0 mg/kg/injection, schedule: Q01DX005 (ip), vehicle: saline with Tween-80
[5] = dose: 120.0 mg/kg/injection, schedule: Q01DX005 (ip), vehicle: saline with Tween-80
[6] = dose: 240.0 mg/kg/injection, schedule: Q01DX005 (ip), vehicle: saline with Tween-80
[7] = dose: 100.0 mg/kg/injection, schedule: Q04DX003 (ip), vehicle: Klucel (hydroxypropylcellulose) (HPC)
[8] = dose: 200.0 mg/kg/injection, schedule: Q04DX003 (ip), vehicle: Klucel (hydroxypropylcellulose) (HPC)
[9] = dose: 400.0 mg/kg/injection, schedule: Q04DX003 (ip), vehicle: Klucel (hydroxypropylcellulose) (HPC)
[10] = dose: 50.0 mg/kg/injection, schedule: Q01DX005 (ip), vehicle: saline
[11] = dose: 100.0 mg/kg/injection, schedule: Q01DX009 (ip), vehicle: saline with Tween-80
[12] = dose: 200.0 mg/kg/injection, schedule: Q01DX009 (ip), vehicle: saline with Tween-80
[13] = dose: 100.0 mg/kg/injection, schedule: Q01DX009 (ip), vehicle: Klucel (hydroxypropylcellulose) (HPC)
[14] = dose: 100.0 mg/kg/injection, schedule: Q01DX009 (ip), vehicle: saline
[15] = dose: 50.0 mg/kg/injection, schedule: Q01DX005 (ip), vehicle: Klucel (hydroxypropylcellulose) (HPC)
[16] = dose: 100.0 mg/kg/injection, schedule: Q01DX005 (ip), vehicle: Klucel (hydroxypropylcellulose) (HPC)
[17] = dose: 200.0 mg/kg/injection, schedule: Q01DX005 (ip), vehicle: Klucel (hydroxypropylcellulose) (HPC)
[18] = dose: 50.0 mg/kg/injection, schedule: Q01DX009 (ip), vehicle: saline with Tween-80

Measured: T/C

CS(=O)(=O)c1nc2ccc(N3C(=O)c4ccccc4C3=O)cc2s1
inactive: dose: 12.5 mg/kg/injection, schedule: Q01DX009 (ip), vehicle: Klucel (hydroxypropylcellulose) (HPC) 108 % of control | [1] 107 % of control | [2] 110 % of control and 89 % of control | [3] 105 % of control

Cc1c(C(N)=O)c(NC=O)n(-c2ccccc2)c1C
inactive: [4] 100 % of control | [5] 99 % of control | [6] 93 % of control

CC(=O)c1c(C)n(-c2ccccc2)c2c1nnc1ccccc12
inactive: dose: 3.75 mg/kg/injection, schedule: Q01DX005 (ip), vehicle: Klucel (hydroxypropylcellulose) (HPC) 101 % of control | dose: 7.5 mg/kg/injection, schedule: Q01DX005 (ip), vehicle: Klucel (hydroxypropylcellulose) (HPC) 93 % of control | dose: 15.0 mg/kg/injection, schedule: Q01DX005 (ip), vehicle: Klucel (hydroxypropylcellulose) (HPC) 95 % of control | dose: 120.0 mg/kg/injection, schedule: Q01DX005 (ip), vehicle: Klucel (hydroxypropylcellulose) (HPC) 96 % of control

Cc1cc(=O)n2c(-c3ccccc3)csc2n1
inactive: [7] 101 % of control | [8] 110 % of control | [9] 113 % of control

CN(C)CCCNC(=O)c1ccc2c(c1O)C(=O)c1ccccc1C2=O
inactive: dose: 12.5 mg/kg/injection, schedule: Q01DX005 (ip), vehicle: saline 105 % of control | dose: 25.0 mg/kg/injection, schedule: Q01DX005 (ip), vehicle: saline 109 % of control | [10] 114 % of control

CC(C(=O)O)c1cccc2nc(-c3ccccc3)oc12 (centres undefined)
inactive: [11] 112 % of control | [12] 102 % of control

NN1C(=O)c2cccc3cccc(c23)C1=O
inactive: dose: 3.13 mg/kg/injection, schedule: Q01DX009 (ip), vehicle: saline with Tween-80 105 % of control | dose: 6.25 mg/kg/injection, schedule: Q01DX009 (ip), vehicle: saline with Tween-80 100 % of control | dose: 12.5 mg/kg/injection, schedule: Q01DX009 (ip), vehicle: saline with Tween-80 100 % of control | dose: 25.0 mg/kg/injection, schedule: Q01DX009 (ip), vehicle: saline with Tween-80 105 % of control

CC1(C)CC2(OC2c2ccccc2)C(=O)c2ccccc21 (centres undefined)
inactive: [1] 89 % of control | [2] 89 % of control | [13] 87 % of control | dose: 400.0 mg/kg/injection, schedule: Q01DX009 (ip), vehicle: Klucel (hydroxypropylcellulose) (HPC) 88 % of control

Cc1ccc(CNc2ccccc2)cc1
inactive: dose: 100.0 mg/kg/injection, schedule: Q01DX009 (ip), vehicle: other 100 % of control | dose: 200.0 mg/kg/injection, schedule: Q01DX009 (ip), vehicle: other 100 % of control | dose: 400.0 mg/kg/injection, schedule: Q01DX009 (ip), vehicle: other 100 % of control

Cc1c(-c2ccccc2)ccnc1/C=N/NC(N)=S
inactive: dose: 6.25 mg/kg/injection, schedule: Q01DX009 (ip), vehicle: saline 101 % of control | dose: 12.5 mg/kg/injection, schedule: Q01DX009 (ip), vehicle: saline 120 % of control | dose: 25.0 mg/kg/injection, schedule: Q01DX009 (ip), vehicle: saline 120 % of control | [14] 103 % of control

COC1CC(O)(CC#N)C(OC(=O)c2ccc([N+](=O)[O-])cc2)C(COC(=O)c2ccc([N+](=O)[O-])cc2)O1 (centres undefined)
inactive: [7] 94 % of control | [8] 101 % of control | [9] 104 % of control

c1ccc(C[N+]23CCC(CC2)C3c2ccccc2)cc1 (centres undefined)
inactive: dose: 3.75 mg/kg/injection, schedule: Q01DX005 (ip), vehicle: saline 103 % of control | dose: 7.5 mg/kg/injection, schedule: Q01DX005 (ip), vehicle: saline 103 % of control | dose: 15.0 mg/kg/injection, schedule: Q01DX005 (ip), vehicle: saline 104 % of control

CCOC(=O)CCCCCCCCNC(=S)N1c2c(nc(N)[nH]c2=O)NCC1CNc1ccc(C(=O)NC(CCC(=O)O)C(=O)O)cc1 (centres undefined)
inactive: [2] 90 % of control | [13] 110 % of control | [3] 99 % of control

CCOC1=NC(C)C(C)N1 (centres undefined)
inactive: dose: 25.0 mg/kg/injection, schedule: Q01DX001 (ip), vehicle: saline 101 % of control | dose: 50.0 mg/kg/injection, schedule: Q01DX001 (ip), vehicle: saline 101 % of control | dose: 100.0 mg/kg/injection, schedule: Q01DX001 (ip), vehicle: saline 108 % of control and 97 % of control

O=Nc1c2ccccc2c(NO)c2ccccc12
inactive: dose: 100.0 mg/kg/injection, schedule: Q04DX002 (ip), vehicle: saline with Tween-80 94 % of control | dose: 200.0 mg/kg/injection, schedule: Q04DX002 (ip), vehicle: saline with Tween-80 92 % of control | dose: 400.0 mg/kg/injection, schedule: Q04DX002 (ip), vehicle: saline with Tween-80 98 % of control

COC(=O)c1ccccc1S(=O)(=O)N1CCOCC1
inactive: [15] 99 % of control | [16] 99 % of control | [17] 98 % of control

COC(=O)/C(=C/c1ccc(/C=C(/C(=O)O)c2ccc(OC)cc2)o1)c1ccccc1
inactive: [4] 97 % of control | [5] 100 % of control | [6] 90 % of control

CCSC(=S)N=Nc1c(O)n(C)c2ccccc12
inactive: dose: 50.0 mg/kg/injection, schedule: Q01DX009 (ip), vehicle: saline 93 % of control | [14] 94 % of control

CCC1(CC)C(=O)NC(=O)NC1(OC)OC
inactive: [10] 98 % of control | dose: 100.0 mg/kg/injection, schedule: Q01DX005 (ip), vehicle: saline 106 % of control | dose: 200.0 mg/kg/injection, schedule: Q01DX005 (ip), vehicle: saline 100 % of control

C[CH2][Sn]1([CH2]C)[c]2ccccc2Oc2cccc[c]21
inactive: [18] 109 % of control | [11] 109 % of control

O=C(O)CC12CC3CC(CC(O)(C3)C1)C2
inactive: [2] 100 % of control | [13] 109 % of control | [3] 90 % of control

COc1cc(/C=N\NC(=O)C(C)SC(C)C(=O)N/N=C/c2cc(OC)c(OC)c(OC)c2)cc(OC)c1OC (centres undefined)
inactive: [15] 93 % of control | [16] 88 % of control | [17] 90 % of control

CC(C)(C)CC(C)(C)c1ccc(OCc2ccc(C(F)(F)F)cc2)cc1
inactive: [18] 100 % of control | [11] 96 % of control | [12] 100 % of control

C=C1C(=O)OC2CCCC(O)C12 (centres undefined)
inactive: dose: 50.0 mg/kg/injection, schedule: Q04DX003 (ip), vehicle: Klucel (hydroxypropylcellulose) (HPC) 106 % of control and 96 % of control | [7] 104 % of control | [8] 115 % of control

N#CC1c2ccccc2C=CN1C(=O)CCCl (centres undefined)
inactive: [2] 106 % of control | [13] 108 % of control | [3] 108 % of control

CCCC(NC(=O)OCc1ccccc1)C(=O)NC(Cc1ccccc1)C(=O)O (centres undefined) (Cbz-[Nva]-Phe-OH; configuration not given here)
inactive: [15] 108 % of control | [16] 106 % of control | [17] 100 % of control

C=C(C)c1nc(NCC)nc(NCC)n1
inactive: dose: 100.0 mg/kg/injection, schedule: Q01DX001 (ip), vehicle: Klucel (hydroxypropylcellulose) (HPC) 94 % of control | dose: 200.0 mg/kg/injection, schedule: Q01DX001 (ip), vehicle: Klucel (hydroxypropylcellulose) (HPC) 90 % of control | dose: 400.0 mg/kg/injection, schedule: Q01DX001 (ip), vehicle: Klucel (hydroxypropylcellulose) (HPC) 92 % of control

OCCNC(=S)Nc1ccccc1
inactive: dose: 7.5 mg/kg/injection, schedule: Q01DX009 (ip), vehicle: saline with Tween-80 104 % of control | dose: 15.0 mg/kg/injection, schedule: Q01DX009 (ip), vehicle: saline with Tween-80 100 % of control

CC(NC(=O)OCc1ccccc1)C(=O)Oc1cc(Cl)c(Cl)cc1Cl (centres undefined)
inactive: [18] 109 % of control | [11] 104 % of control | [12] 107 % of control

CCOC(=O)C(C(=O)OCC)c1c[n+]([O-])c2ccccc2c1[N+](=O)[O-]
inactive: [11] 104 % of control | dose: 100.0 mg/kg/injection, schedule: Q04DX003 (ip), vehicle: saline with Tween-80 109 % of control | [12] 100 % of control | dose: 200.0 mg/kg/injection, schedule: Q04DX003 (ip), vehicle: saline with Tween-80 104 % of control | dose: 400.0 mg/kg/injection, schedule: Q01DX009 (ip), vehicle: saline with Tween-80 100 % of control | dose: 400.0 mg/kg/injection, schedule: Q04DX003 (ip), vehicle: saline with Tween-80 95 % of control

Source: PubChem BioAssay AID330 (DTP/NCI, 2004)
